Molecular target: T1, LfCE15C (Lentithecium fluviatile, UniProt A0A6G1IIU9)
T1 construct: gene K458DRAFT_349146; native signal peptide removed; secreted from Pichia pastoris SMD1168H; N-glycosylated at Asn241
Experiment: nanoDSF thermal shift (Tycho NT.[…] nm)
Conditions: 20 mM ligand; 0.1 M sodium phosphate pH 6.5; indirect indication of binding

T1 sequence (A0A6G1IIU9 entry or part of it): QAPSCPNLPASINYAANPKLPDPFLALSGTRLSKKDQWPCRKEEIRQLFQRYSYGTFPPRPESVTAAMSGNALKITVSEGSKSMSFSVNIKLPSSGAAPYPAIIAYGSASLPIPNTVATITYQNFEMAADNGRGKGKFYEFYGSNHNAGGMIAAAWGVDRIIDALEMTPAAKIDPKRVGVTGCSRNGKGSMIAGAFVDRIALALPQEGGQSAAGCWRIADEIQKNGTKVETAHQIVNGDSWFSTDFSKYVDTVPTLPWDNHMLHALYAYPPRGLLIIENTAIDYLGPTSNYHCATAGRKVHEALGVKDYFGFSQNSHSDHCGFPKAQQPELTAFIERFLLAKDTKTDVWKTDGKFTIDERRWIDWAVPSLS

`O=C(OCc1ccccc1)[C@H]1OC(O)[C@H](O)[C@@H](O)[C@@H]1O` (stereo partly shown) [BnzGlcA, benzyl glucuronate] was tested, and the Ti shift was “A decrease in T i was observed with BnzGlcA”.

Source: PMC10233622, “Structural and functional investigation of a fungal member of carbohydrate esterase family 15 with potential specificity for rare xylans” (Acta Crystallographica. Section D, Structural Biology, 2023)
